In patent US20060205640A1, “Papillosin antimicrobial peptide, a gene coding said peptide, a vector, a transformed organism and a compound containing said organism” (priority 2003, published 2006):
No end group written: not given here.

What was measured:
S. aureus = type: cell-based; conditions: gram-positive bacteria, 18 hours incubation, Mueller Hinton
Protocol: (§1) Complementary tests were carried out in order to determine the spectrum of activity of papillosin. The minimal bactericidal concentration (MBC) for each bacterial strain tested is determined as follows: The peptide is placed in a solution containing 0.01% acetic acid and 0.2% bovine serum albumin (BSA), then, serial dilutions of 2 in [sic—and?] 2 are realized in the same 0.01% solution of acetic acid and 0.2% BSA. 10 μl of each dilution are incubated in sterile 96-well plates (Becton Dickinson, USA, ref: 18572) in the presence of 100 μl of a bacterial suspension brought to an optical density of 0.001 at 600 nm in the Mueller Hinton environment (MHB, SIGMA, ref: M-9677).
(§2) The bacterial growth is monitored after 18 hours of incubation under agitation. The MBC is determined by spreading out the content of the first three wells in which no bacterial growth was observed; this spreading out was carried out on Petri dishes on which an agar was poured prepared from the Mueller Hinton environment. These dishes were then incubated 18 hours. The MBC corresponds to the lowest concentration of peptide for which no bacterial colony was observed on the incubated dishes.

E. coli = type: cell-based; conditions: gram-negative bacteria, 18 hours incubation, Mueller Hinton
Protocol: as §1, §2

Q: “GFWKKVGSAAWGGVKAAAKGAAVGGLNALAKHIQ [papillosin]” was tested. Which MBC (S. aureus) did it give?
A: The MBC was 0.5 to 1 µM.

Q: What about the MBC (E. coli) of the same sequence?
A: The MBC was 0.25 to 0.5 µM.
